For the test, the system named is L1210 leukemia ip in BDF1 mice, survival T/C. Briefly: NCI In Vivo Anticancer Drug Screen. Data for tumor model L1210 Leukemia (intraperitoneal) in B6D2F1 (BDF1) mice. The following applies: endpoint: mean survival time, higher = longer survival. The gist of the method: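 In this screen, tumor-bearing mice given compound are compared to those given vehicle, and their survival values are reported as a treated-to-control quotient.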

Setting [1] is: dose: 50.0 mg/kg/injection, schedule: Q01DX009 (ip), vehicle: saline.
[2] abbreviates: dose: 100.0 mg/kg/injection, schedule: Q01DX009 (ip), vehicle: saline.
The mark [3] stands for this setting: dose: 100.0 mg/kg/injection, schedule: Q04DX003 (ip), vehicle: saline.
The mark [4] stands for this setting: dose: 200.0 mg/kg/injection, schedule: Q01DX009 (ip), vehicle: saline.
[5] abbreviates: dose: 200.0 mg/kg/injection, schedule: Q04DX003 (ip), vehicle: saline.
The mark [6] stands for this setting: dose: 100.0 mg/kg/injection, schedule: Q04DX003 (ip), vehicle: Klucel (hydroxypropylcellulose) (HPC).
The mark [7] stands for this setting: dose: 200.0 mg/kg/injection, schedule: Q04DX003 (ip), vehicle: Klucel (hydroxypropylcellulose) (HPC).
The mark [8] stands for this setting: dose: 400.0 mg/kg/injection, schedule: Q04DX003 (ip), vehicle: Klucel (hydroxypropylcellulose) (HPC).
[9] abbreviates: dose: 100.0 mg/kg/injection, schedule: Q01DX009 (ip), vehicle: saline with Tween-80.
[10] abbreviates: dose: 200.0 mg/kg/injection, schedule: Q01DX009 (ip), vehicle: saline with Tween-80.
The mark [11] stands for this setting: dose: 400.0 mg/kg/injection, schedule: Q01DX009 (ip), vehicle: saline with Tween-80.
Setting [12] is: dose: 50.0 mg/kg/injection, schedule: Q01DX001 (ip), vehicle: saline.
Where [13] appears, read: dose: 100.0 mg/kg/injection, schedule: Q01DX001 (ip), vehicle: saline.
Where [14] appears, read: dose: 200.0 mg/kg/injection, schedule: Q01DX001 (ip), vehicle: saline.
The mark [15] stands for this setting: dose: 100.0 mg/kg/injection, schedule: Q04DX002 (ip), vehicle: Klucel (hydroxypropylcellulose) (HPC).
[16] abbreviates: dose: 200.0 mg/kg/injection, schedule: Q04DX002 (ip), vehicle: Klucel (hydroxypropylcellulose) (HPC).
The mark [17] stands for this setting: dose: 400.0 mg/kg/injection, schedule: Q04DX002 (ip), vehicle: Klucel (hydroxypropylcellulose) (HPC).
The mark [18] stands for this setting: dose: 75.0 mg/kg/injection, schedule: Q04DX003 (ip), vehicle: Klucel (hydroxypropylcellulose) (HPC).
The mark [19] stands for this setting: dose: 150.0 mg/kg/injection, schedule: Q04DX003 (ip), vehicle: Klucel (hydroxypropylcellulose) (HPC).
Where [20] appears, read: dose: 300.0 mg/kg/injection, schedule: Q04DX003 (ip), vehicle: Klucel (hydroxypropylcellulose) (HPC).
[21] abbreviates: dose: 400.0 mg/kg/injection, schedule: Q01DX009 (ip), vehicle: saline.

Toxic doses and inconclusive results are not listed.

On to `C=CCn1cnc(=N)c2[nH]cnc21`, for which the T/C is 94 % of control under setting [1]; 87 % of control under setting [2]; 90 % of control under setting [3]; 93 % of control under setting [4]; 94 % of control under setting [5].
For `Cc1cccc(Nc2nc(N)nc(N)c2N=O)c1C`, the T/C is 96 % of control (dose: 100.0 mg/kg/injection, schedule: Q01DX Z (ip), vehicle: methylcellulose (MC)) and 102 % of control (dose: 200.0 mg/kg/injection, schedule: Q01DX Z (ip), vehicle: methylcellulose (MC)).
As for `C=CCc1c(C)nc(N)[nH]c1=O`, the T/C under setting [6] is 104 % of control, the T/C under setting [7] is 107 % of control and the T/C under setting [8] is 102 % of control.
Consider `C[C@@H]1CN1C1=CC(=O)C(N2C[C@H]2C)=CC1=O`, for which the T/C (dose: 6.25 mg/kg/injection, schedule: Q04DX003 (ip), vehicle: saline with Tween-80) was 117 % of control and the T/C (dose: 12.5 mg/kg/injection, schedule: Q04DX003 (ip), vehicle: saline with Tween-80) was 117 % of control.
In the case of `CCCNC(=O)Nc1cccc(C(F)(F)F)c1`, the T/C is 100 % of control under setting [9]; 100 % of control (dose: 100.0 mg/kg/injection, schedule: Q04DX003 (ip), vehicle: saline with Tween-80); 97 % of control under setting [10]; 97 % of control (dose: 200.0 mg/kg/injection, schedule: Q04DX003 (ip), vehicle: saline with Tween-80); 88 % of control under setting [11]; 106 % of control (dose: 400.0 mg/kg/injection, schedule: Q04DX003 (ip), vehicle: saline with Tween-80).
For the compound `C[n+]1csc(=S)[nH]1`, the T/C under setting [2] was 98 % of control.
As for `O=C1C2C(C(=O)N1c1ccccc1)C(c1ccccc1)N(c1ccccc1)C2c1ccccc1` (stereo unspecified), the T/C runs as follows: under setting [12], 103 % of control; under setting [13], 108 % of control; under setting [14], 100 % of control; (dose: 400.0 mg/kg/injection, schedule: Q01DX001 (ip), vehicle: saline) 103 % of control.
As for `CCOC(=O)CNc1cc(C)ccc1C`, the T/C was 95 % of control under setting [15], 98 % of control under setting [16] and 95 % of control under setting [17].
Turning to `CN1CN(c2ccccc2)C2(CCN(Cc3nc4ccccc4[nH]3)CC2)C1=O`, the T/C reads like this: under setting [18], 100 % of control; under setting [19], 107 % of control; under setting [20], 105 % of control.
On to `CSC(=N)N`, for which the T/C runs as follows: under setting [13], 105 % of control; under setting [2], 99 % of control; (dose: 100.0 mg/kg/injection, schedule: Q04DX002 (ip), vehicle: saline) 100 % of control; under setting [3], 101 % of control; under setting [14], 96 % of control; under setting [4], 91 % of control. In addition, the T/C is 100 % of control (dose: 200.0 mg/kg/injection, schedule: Q04DX002 (ip), vehicle: saline); 97 % of control under setting [5]; 89 % of control under setting [21]; 97 % of control (dose: 400.0 mg/kg/injection, schedule: Q04DX003 (ip), vehicle: saline).
As for `O=S1(=O)C(C(O)(c2ccccc2)c2ccccc2)CCC1C(O)(c1ccccc1)c1ccccc1` (stereo unspecified), the T/C by setting is: (dose: 100.0 mg/kg/injection, schedule: Q01DX009 (ip), vehicle: Klucel (hydroxypropylcellulose) (HPC)) 98 % of control; under setting [6], 102 % of control; (dose: 200.0 mg/kg/injection, schedule: Q01DX009 (ip), vehicle: Klucel (hydroxypropylcellulose) (HPC)) 98 % of control; under setting [7], 93 % of control; (dose: 400.0 mg/kg/injection, schedule: Q01DX009 (ip), vehicle: Klucel (hydroxypropylcellulose) (HPC)) 93 % of control; under setting [8], 105 % of control.
Take `COC(=O)C(C)NC(=O)CNC(=O)OCc1ccccc1` (stereo unspecified): the T/C by setting is: under setting [9], 97 % of control; under setting [10], 102 % of control; under setting [11], 92 % of control.
`CC1(C)CCC(C)(C)c2c1ccc(O)c2Sc1c(O)ccc2c1C(C)(C)CCC2(C)C`: under setting [13], the T/C was 87 % of control.
Take `CC(C)=C(Br)CC[C@@H](C)[C@H]1CC[C@@]2(C)C3=C(CC[C@]12C)[C@@]1(C)CC[C@H](O)C(C)(C)[C@@H]1CC3`: the T/C was 102 % of control (dose: 62.0 mg/kg/injection, schedule: Q01DX Z (sc), vehicle: steriod suspending solution); 95 % of control (dose: 125.0 mg/kg/injection, schedule: Q01DX Z (sc), vehicle: steriod suspending solution); 95 % of control (dose: 250.0 mg/kg/injection, schedule: Q01DX Z (sc), vehicle: steriod suspending solution); 95 % of control (dose: 500.0 mg/kg/injection, schedule: Q01DX Z (sc), vehicle: steriod suspending solution).
In the case of `CCCCCCCC/C=C\CCCCCCCC(=O)NCC[N+]1(C)CCCCC1`, the T/C reads like this: (dose: 75.0 mg/kg/injection, schedule: Q01DX001 (ip), vehicle: saline) 94 % of control; (dose: 150.0 mg/kg/injection, schedule: Q01DX001 (ip), vehicle: saline) 97 % of control.
Take `O=C(O)CSc1ccccc1C(=O)O`: the T/C under setting [12] is 93 % of control; the T/C under setting [18] is 94 % of control; the T/C (dose: 100.0 mg/kg/injection, schedule: Q01DX001 (ip), vehicle: Klucel (hydroxypropylcellulose) (HPC)) is 96 % of control; the T/C under setting [13] was 100 % of control; the T/C under setting [19] is 90 % of control; the T/C (dose: 200.0 mg/kg/injection, schedule: Q01DX001 (ip), vehicle: Klucel (hydroxypropylcellulose) (HPC)) is 120 % of control. The T/C is, setting by setting: under setting [14], 102 % of control; under setting [20], 92 % of control; (dose: 400.0 mg/kg/injection, schedule: Q01DX001 (ip), vehicle: Klucel (hydroxypropylcellulose) (HPC)) 102 % of control.
With `O=C(Nc1cc(Cl)ccc1Cl)OCCCl`, the T/C by setting is: under setting [15], 97 % of control; under setting [16], 102 % of control; under setting [17], 97 % of control.
As for `O=C(Nc1ccccc1Cl)Nc1ccccc1Br`, the T/C is 103 % of control (dose: 100.0 mg/kg/injection, schedule: Q04DX002 (ip), vehicle: saline + alcohol); 96 % of control (dose: 200.0 mg/kg/injection, schedule: Q04DX002 (ip), vehicle: saline + alcohol); 92 % of control (dose: 400.0 mg/kg/injection, schedule: Q04DX002 (ip), vehicle: saline + alcohol).
`C=C(C)C1C=CC(O)=C2C(=O)CCC(C)C21C` (stereo unspecified): the T/C runs as follows: (dose: 25.0 mg/kg/injection, schedule: Q04DX003 (ip), vehicle: saline) 100 % of control; (dose: 50.0 mg/kg/injection, schedule: Q04DX003 (ip), vehicle: saline) 100 % of control; under setting [3], 100 % of control.
`CN(C)CCCNc1ccc(O)c2c1C(=O)c1ccccc1C2=O`: the T/C under setting [1] is 100 % of control, the T/C under setting [2] is 95 % of control, the T/C under setting [4] is 106 % of control and the T/C under setting [21] is 105 % of control.
For `O=C(NCCCCN1CC1)C(=O)NCCCCN1CC1`, the T/C is, setting by setting: (dose: 1.5 mg/kg/injection, schedule: Q04DX003 (ip), vehicle: Klucel (hydroxypropylcellulose) (HPC)) 108 % of control; (dose: 3.0 mg/kg/injection, schedule: Q04DX003 (ip), vehicle: Klucel (hydroxypropylcellulose) (HPC)) 118 % of control; (dose: 8.0 mg/kg/injection, schedule: Q04DX003 (ip), vehicle: Klucel (hydroxypropylcellulose) (HPC)) 155 % of control; (dose: 18.0 mg/kg/injection, schedule: Q04DX003 (ip), vehicle: Klucel (hydroxypropylcellulose) (HPC)) 177 % of control.
